According to US10766869B2, “Triazoles for the treatment of demyelinating dieases” (Vertex Pharmaceuticals Incorporated, priority 2015, dated 2020):

Tested on: primary rat mixed cortical cells
Assay: In vitro myelination assay (MBP positive myelin strands, fold myelin pixels above background)
Assay type: cell-based
Conditions: Rattus norvegicus, relative to baseline of no added compound, read-out: Fold myelin pixels above background; for fold induction at 1 µM: 1.0 μM compound; for fold induction at 10 µM: 10.0 μM compound
Method in brief: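 P1 rat cortical cells (neurons, OPCs, oligodendrocytes, astrocytes, microglia) were cultured 14 days at 37 °C with compound, with half-medium changes containing 1× compound on days 6 and 10. Fixed cells were immunostained for MBP and imaged at 10×. Total MBP myelin pixels per well were expressed as fold above no-compound baseline at 1.0 μM and 10.0 μM.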

| Structure (SMILES) | fold induction at 1 µM | fold induction at 10 µM |
| --- | --- | --- |
| FC(F)c1cccc(-n2cnc(Nc3cc(C(F)F)cc(N4CCN(C5COC5)CC4)n3)n2)c1 [Compound 718, 4-(difluoromethyl)-N-[1-[3-(difluoromethyl)phenyl]-1,2,4-triazol-3-yl]-6-[4-(oxetan-3-yl)piperazin-1-yl]pyridin-2-amine] | 10 to 100 | 100 to 1000 |
| FC(F)c1cc(Nc2ncn(-c3cccc(C(F)(F)F)c3)n2)nc(N2CC(N3CCOCC3)C2)c1 [Compound 719, 4-(difluoromethyl)-6-(3-morpholinoazetidin-1-yl)-N-[1-[3-(trifluoromethyl)phenyl]-1,2,4-triazol-3-yl]pyridin-2-amine] | 1 to 10 | ≤ 1 |
| Cc1cc(Nc2ncn(-c3ccc(F)c(F)c3)n2)cc(N2CC(N3CCOCC3)C2)c1 [Compound 720, 1-(3,4-difluorophenyl)-N-[3-methyl-5-(3-morpholinoazetidin-1-yl)phenyl]-1,2,4-triazol-3-amine] | 1 to 10 | 10 to 100 |
| Cc1cc(Nc2ncn(-c3cccc(F)c3)n2)cc(N2CC(N3CCOCC3)C2)c1 [Compound 721, 1-(3-fluorophenyl)-N-[3-methyl-5-(3-morpholinoazetidin-1-yl)phenyl]-1,2,4-triazol-3-amine] | 10 to 100 | ≤ 1 |
| Cc1cc(Nc2ncn(-c3cc(F)cc(F)c3)n2)cc(N2C3CCC2COC3)c1 [Compound 722, 1-(3,5-difluorophenyl)-N-[3-methyl-5-(3-oxa-8-azabicyclo[3.2.1]octan-8-yl)phenyl]-1,2,4-triazol-3-amine] | 10 to 100 | 10 to 100 |
| Fc1cc(F)cc(-n2cnc(Nc3cc(Cl)cc(N4CC(N5CCOCC5)C4)c3)n2)c1 [Compound 723, N-[3-chloro-5-(3-morpholinoazetidin-1-yl)phenyl]-1-(3,5-difluorophenyl)-1,2,4-triazol-3-amine] | 10 to 100 | 100 to 1000 |
| Cc1cc(Nc2ncn(-c3cc(F)cc(F)c3)n2)cc(N2CCOC3(COC3)C2)c1 [Compound 724, 1-(3,5-difluorophenyl)-N-[3-(2,5-dioxa-8-azaspiro[3.5]nonan-8-yl)-5-methyl-phenyl]-1,2,4-triazol-3-amine] | 1 to 10 | 1 to 10 |
| Cc1cc(Nc2ncn(-c3cccc(C(F)F)c3)n2)cc(N2CCC(N3CCOCC3)CC2)c1 [Compound 725, 1-[3-(difluoromethyl)phenyl]-N-[3-methyl-5-(4-morpholino-1-piperidyl)phenyl]-1,2,4-triazol-3-amine] | 10 to 100 | 10 to 100 |
| Fc1cc(F)cc(-n2cnc(Nc3cc(N4CCN(C5COC5)CC4)cc(N4CCN(C5COC5)CC4)n3)n2)c1 [Compound 726, N-[1-(3,5-difluorophenyl)-1,2,4-triazol-3-yl]-4,6-bis[4-(oxetan-3-yl)piperazin-1-yl]pyridin-2-amine] | 1 to 10 | 1 to 10 |
| Cc1cc(Nc2ncn(-c3cc(F)cc(F)c3)n2)cc(N2CC3CC2CO3)c1 (stereo not drawn) [Compound 727, 1-(3,5-difluorophenyl)-N-[3-methyl-5-(2-oxa-5-azabicyclo[2.2.1]heptan-5-yl)phenyl]-1,2,4-triazol-3-amine] | 10 to 100 | ≤ 1 |
| Fc1ccc(-n2cnc(Nc3cc(C(F)(F)F)cc(N4CCN(C5COC5)CC4)n3)n2)cc1 [Compound 728, N-[1-(4-fluorophenyl)-1,2,4-triazol-3-yl]-6-[4-(oxetan-3-yl)piperazin-1-yl]-4-(trifluoromethyl)pyridin-2-amine] | 10 to 100 | ≤ 1 |
| COCC1CCN(c2cc(C(F)F)cc(Nc3ncn(-c4cc(F)cc(F)c4)n3)n2)CC1 [Compound 729, 4-(difluoromethyl)-N-[1-(3,5-difluorophenyl)-1,2,4-triazol-3-yl]-6-[4-(methoxymethyl)-1-piperidyl]pyridin-2-amine] | ≤ 1 | 10 to 100 |
| Cc1cc(Nc2ncn(-c3cc(F)cc(F)c3)n2)cc(N2CC(N3CCO[C@@H](C)C3)C2)c1 [Compound 730, 1-(3,5-difluorophenyl)-N-[3-methyl-5-[3-[(2S)-2-methylmorpholin-4-yl]azetidin-1-yl]phenyl]-1,2,4-triazol-3-amine] | 10 to 100 | 10 to 100 |
| Cc1cc(Nc2ncn(-c3cc(F)cc(F)c3)n2)nc(N2CCN(C)CC2)c1 [Compound 731, N-[1-(3,5-difluorophenyl)-1,2,4-triazol-3-yl]-4-methyl-6-(4-methylpiperazin-1-yl)pyridin-2-amine] | 10 to 100 | ≤ 1 |
| Fc1cc(F)cc(-n2cnc(Nc3cc(C(F)F)cc(N4CC(N5CCOCC5)C4)n3)n2)c1 [Compound 732, 4-(difluoromethyl)-N-[1-(3,5-difluorophenyl)-1,2,4-triazol-3-yl]-6-(3-morpholinoazetidin-1-yl)pyridin-2-amine] | 1 to 10 | 1 to 10 |
| Fc1cc(F)cc(-n2cnc(Nc3cc(N4CCN(C5COC5)CC4)cc(Cl)n3)n2)c1 [Compound 733, 6-chloro-N-[1-(3,5-difluorophenyl)-1,2,4-triazol-3-yl]-4-[4-(oxetan-3-yl)piperazin-1-yl]pyridin-2-amine] | 1 to 10 | 1 to 10 |
| CCc1cc(Nc2ncn(-c3cccc(C#N)c3)n2)cc(N2CCN(C3COC3)CC2)c1 [Compound 734, 3-[3-[3-ethyl-5-[4-(oxetan-3-yl)piperazin-1-yl]anilino]-1,2,4-triazol-1-yl]benzonitrile] | 1 to 10 | ≤ 1 |
| COc1ccc(-n2cnc(Nc3cc(C)cc(N4CC(N5CCOCC5)C4)c3)n2)cc1F [Compound 735, 1-(3-fluoro-4-methoxy-phenyl)-N-[3-methyl-5-(3-morpholinoazetidin-1-yl)phenyl]-1,2,4-triazol-3-amine] | 1 to 10 | 1 to 10 |
| CCc1cc(Nc2ncn(-c3cccc(C(F)F)c3)n2)cc(N2CCN(C3COC3)CC2)c1 [Compound 736, 1-[3-(difluoromethyl)phenyl]-N-[3-ethyl-5-[4-(oxetan-3-yl)piperazin-1-yl]phenyl]-1,2,4-triazol-3-amine] | 10 to 100 | ≤ 1 |
| N#Cc1cc(Nc2ncn(-c3cccc(F)c3)n2)cc(N2CCOCC2)c1 [Compound 737, 3-[[1-(3-fluorophenyl)-1,2,4-triazol-3-yl]amino]-5-morpholino-benzonitrile] | 10 to 100 | 10 to 100 |
| Cc1cc(Nc2ncn(-c3cc(F)cc(F)c3)n2)cc(N(C)CCN2CCOCC2)c1 [Compound 738, N3-[1-(3,5-difluorophenyl)-1,2,4-triazol-3-yl]-N1,5-dimethyl-N1-(2-morpholinoethyl)benzene-1,3-diamine] | 10 to 100 | ≤ 1 |
| Cc1cc(N2CC(N3CCOCC3)C2)cc(Nc2ncn(-c3cc(F)cc(F)c3)n2)c1C [Compound 739, 1-(3,5-difluorophenyl)-N-[2,3-dimethyl-5-(3-morpholinoazetidin-1-yl)phenyl]-1,2,4-triazol-3-amine] | 10 to 100 | 10 to 100 |
| Cc1cc(Nc2ncn(-c3cnccn3)n2)cc(C2(C)CNC(=O)O2)c1 (stereo not drawn) [Compound 741, 5-methyl-5-[3-methyl-5-[(1-pyrazin-2-yl-1,2,4-triazol-3-yl)amino]phenyl]oxazolidin-2-one] | 10 to 100 | 1 to 10 |
| Cc1cc(Nc2ncn(-c3cc(F)cc(F)c3)n2)cc(N2CC(N3CC4CC(C3)O4)C2)c1 [Compound 742, 1-(3,5-difluorophenyl)-N-[3-methyl-5-[3-(6-oxa-3-azabicyclo[3.1.1]heptan-3-yl)azetidin-1-yl]phenyl]-1,2,4-triazol-3-amine] | 10 to 100 | ≤ 1 |
| Cc1cc(Nc2ncn(-c3cc(F)cc(F)c3)n2)c(F)c(N2CC3(COC3)C2)c1 [Compound 743, 1-(3,5-difluorophenyl)-N-[2-fluoro-5-methyl-3-(2-oxa-6-azaspiro[3.3]heptan-6-yl)phenyl]-1,2,4-triazol-3-amine] | 1 to 10 | 10 to 100 |
| Cc1cc(Nc2ncn(-c3cc(F)cc(F)c3)n2)nc(C2CCNCC2)c1 [Compound 744, N-[1-(3,5-difluorophenyl)-1,2,4-triazol-3-yl]-4-methyl-6-(4-piperidyl)pyridin-2-amine] | 1 to 10 | ≤ 1 |
| Cc1cc(Nc2ncn(-c3cc(F)cc(F)c3)n2)cc(N2CCC(N3CC(F)(F)C3)CC2)c1 [Compound 745, N-[3-[4-(3,3-difluoroazetidin-1-yl)-1-piperidyl]-5-methyl-phenyl]-1-(3,5-difluorophenyl)-1,2,4-triazol-3-amine] | 10 to 100 | ≤ 1 |
| Cc1cc(Nc2ncn(-c3cc(F)cc(F)c3)n2)cc(N2CC(N3C4CCC3COC4)C2)c1 [Compound 746, 1-(3,5-difluorophenyl)-N-[3-methyl-5-[3-(3-oxa-8-azabicyclo[3.2.1]octan-8-yl)azetidin-1-yl]phenyl]-1,2,4-triazol-3-amine] | 10 to 100 | 10 to 100 |
| Cc1cc(Nc2ncn(-c3cc(F)cc(F)c3)n2)cc(N2CCN(CCCN(C)C)CC2)c1 [Compound 747, 1-(3,5-difluorophenyl)-N-[3-[4-[3-(dimethylamino)propyl]piperazin-1-yl]-5-methyl-phenyl]-1,2,4-triazol-3-amine] | ≤ 1 | ≤ 1 |
| Cc1cc(Nc2ncn(-c3ccc(Cl)c(F)c3)n2)nc(N2CCN(C3COC3)CC2)c1 [Compound 749, N-[1-(4-chloro-3-fluoro-phenyl)-1,2,4-triazol-3-yl]-4-methyl-6-[4-(oxetan-3-yl)piperazin-1-yl]pyridin-2-amine] | 10 to 100 | 10 to 100 |
